How the values were obtained:
[1] = tissue homogenate binding by ultrafiltration; assay type: in vitro ADME, mice
Method: After centrifugation of mixtures from tissue or microsomal incubations for 15 min at 4 °C, the supernatants were filtered through a 0.2 -µm-pore-size syringe filter and stored in the autosampler at 6 °C until analysis by LC-MS/MS as […]
SM5 Tissue binding of SH045
The tissue binding of SH045 was analyzed exemplarily in lung, liver and kidney homogenate using ultrafiltration [5]. Appropriate concentrations of homogenate and SH045 were optimized out of data from a series of various dilution ratios of tissue homogenates (1/2, 1/5, 1/10 and 1/20, w/v) and SH045 concentrations in spiked homogenate (liver and kidney: 0.05, 0.1, 0.5, 1, 2, 5 µg/mL; lung: 1, 2, 5, 10, 20, 50 µg/mL, not shown). Tissue binding assays were performed as follows: 448 µL tissue homogenates (1/10, w/v) were mixed with 2 µL SH045 (final: 50 µg/ml for lung, 2 µg/ml for liver and 1 µg/ml kidney). After incubation for 15 min at 37 °C at 450 rpm, 400 µL of the mixture was transferred to centrifugal filter units (30kDa) and centrifuged for 20 min at 2000g and 37 °C. 20 µL of the mixture and the filtrate were analyzed for SH045. The concentration in the filtrate refers to the unbound SH045 concentration according to tissue binding (%) = (ctot – cfiltrate) / ctotal × 100%. […]
Mean maximum rate vmax and Michaelis- […]
CLint,micr the intrinsic clearance CLint, equal to the maximum enzyme activity of liver and for in vitro-in vivo exploration of hepatic clearance CLhep in mouse and human using the “well-stirred” model [6].
(§1) SM7 Identification of metabolism pathways and metabolites of SH045 in MLM and HLM To determine possible metabolism pathways of SH045 in MLM and HLM, an in vitro inhibition approach was performed with CYP-isoform specific inhibitors (final concentration): ciprofloxacin (CYP1A2; 150 µM), pilocarpine (CYP2A6; 50 µM), ticlopidine (CYP2B6; 5 µM), quercetin (CYP2C8; 2 µM), sulfaphenazole (CYP2C9; 10 µM), fluvoxamine (CYP2C19; 10 µM), quinidine (CYP2D6; 10 µM), 4-methyl pyrazole (CYP2E1; 100 µM) and ketoconazole (CYP3A4; 1 µM) [7, 8]. […]

[2] = time-dependent metabolization (stability) in MLM and IVIVE of hepatic clearance; assay type: in vitro ADME, mouse
Excerpt: In the widely used concept of the “well-stirred” model, liver represents a single uniform compartment. It is further assumed that the concentration of unbound SH045 leaving the liver is in equilibrium with its unbound concentration in hepatocytes (detailed calculation in Supplementary Materials SM8, summarized values in SR4). Briefly, microsomal intrinsic clearance was converted to hepatic clearance: CLhep = Q × fu × CLint/Q + (fu × CLint), where fu is the unbound fraction of SH045 in blood and Q is the hepatic blood flow in mice.
For this purpose, remaining concentrations of SH045 in microsomes were determined to calculate the intrinsic microsomal clearance CLint,micr, the intrinsic clearance CLint, equal to the maximum enzyme activity of liver and for in vitro-in vivo exploration of hepatic clearance CLhep in mouse and human using the well-stirred model. The algorithm for these calculations is given in detail in the Supplementary Materials SM8. […]
All microsome incubations were stopped with 1 mL ice -cold ACN containing 5 µg/mL IS, vortexed for 1 min and cooled at -20 °C for 10 min. […]
SM6 Metabolization studies in MLM and HLM and calculation of hepatic clearance For determination of vmax and Km of the NADPH-dependent microsomal depletion of SH045, the following incubations were performed for MLM and HLM, respectively. 2 µL SH045 (final concentration 0.5 – 100 µM, in triplicate), 12.5 µL HLM or MLM (finally 0.5 mg/mL protein) and 460.5 µL DPBS were vortexed and preincubated 37 °C for 5 min. The reaction was initiated by addition of 25 µL analogously pre-incubated β-NADPH (finally: 1 mM).
After gentle shaking at 37 °C and 300 rpm for 10 min, incubations were terminated and samples prepared as described […]
Testosterone (10 µM in ACN/DPBS 2/3, v/v) instead of SH045 was used as positive control and analyzed by an appropriate HPLC method with UV detection.
Negative controls contained either no NADPH, no MLM or HLM or none of them. […]
Menten constant Km were calculated using Lineweaver-Burk transformation. From Km an appropriate drug concentration of 2 µM was derived as prerequisite for experimental in vitro determination of t1/2 required for further exploration of clearance.
For this purpose, microsomes were incubated as described above with 2 µM SH045 for indicated time intervals up to 30 min. The remaining concentrations of SH045 were determined to calculate the intrinsic microsomal clearance CLint,micr the intrinsic clearance CLint, equal to the maximum enzyme activity of liver and for in vitro-in vivo exploration of hepatic clearance CLhep in mouse and human using the “well-stirred” model [6].
as §1, with “8]. The inhibitors were dissolved in DPBS and appropriate methanol, the organic solvents not” for “8].”
SH045 (2 µM) was pre-incubated with MLM or HLM (0.5 mg/mL) and the specific inhibitor for 5 min at 37 °C in DPBS.
Ticlopidine, a time-dependent inhibitor was pre-incubated for 15 min [9]. Incubations were performed in triplicate with NADPH (1 mM) in a final volume of 500 µL for 2 min and 10 min with pre-incubated MLM and HLM, respectively, terminated with 1 mL ice-cold ACN and processed as described above for LC-MS/MS. A sample without any inhibitor served as a positive control. Incubations with an equal volume of DMSO instead of SH045 and samples without NADPH, MLM or HLM or both, respectively, served as negative controls.
To explore metabolites of SH045 formed by microsomes, D PBS, alamethicin (25 µg/mL) [10] and MLM or HLM (1.0 […]

`C=C[C@@](C)(O)CC[C@H]1C(=C)C[C@H](OC(=O)NC)[C@H]2C(C)(C)CCC[C@]12C` [SH045, (1S,4S,4aR,8aS)-4-((S)-3-Hydroxy-3-methylpent-4-en-1-yl)-4a,8,8-trimethyl-3-methylenedecahydronaphthalen-1-yl methylcarbamate] showed a Tissue binding ([1]; kidney) of 98%, a Tissue binding ([1]; liver) of 97% and a Tissue binding ([1]; lung) of 97%. For the same compound, the microsomal CLint at 2 µM ([2]; CD-1, mouse, liver microsomes, mouse liver microsomes, read-out: CLint, micr) was 1170 µL/min/mg, the CLint scaled at 2 µM ([2]; CD-1, mouse, liver microsomes, mouse, scaled from CLint,micr) was 276 L/h/kg and the half-life at 2 µM ([2]; male, CD-1, pH 7.4, mouse liver microsomes 0.5 mg/mL, 2 µM SH045, NADPH) was 1.18 min. The “CLint, micr” value ([2]; mouse liver microsomes) was 1173.6 µL/min/mg, the CLhep ([2]; mouse, predicted by well-stirred model, fu 0.3%, Q 90 mL/min/kg) was 0.717 L/h/kg and the CLint ([2]; mouse, scaled from CLint,micr) was 275.68 L/h/kg.

Source: PMC8998618, “A Pharmacokinetic and Metabolism Study of the TRPC6 Inhibitor SH045 in Mice by LC-MS/MS” (International Journal of Molecular Sciences, 2022)
